Experimental data taken from patent US20260317314A1, “NITROGEN-CONTAINING HETEROCYCLIC COMPOUND AND USE THEREOF” (JIANGSU DEYUAN PHARMACEUTICAL CO.,LTD., priority 2023, published 2026).
pIC50: −log10 of the molar value.

Key:
[1] = biological target: T1, human CYP11B1 (Homo sapiens, UniProt P15538); experiment: In vitro activity assay of monoclonal cells overexpressing human CYP11B1; format: cell-based; conditions: G402 cells overexpressing human CYP11B1; substrate 11-deoxycortisol 1 μM; 16 hours
T1 construct: expressed in transfected cells; host or cells: human renal leiomyoma G402 cell line (monoclonal cells overexpressing human CYP11B1)
T1 sequence (P15538 25-503): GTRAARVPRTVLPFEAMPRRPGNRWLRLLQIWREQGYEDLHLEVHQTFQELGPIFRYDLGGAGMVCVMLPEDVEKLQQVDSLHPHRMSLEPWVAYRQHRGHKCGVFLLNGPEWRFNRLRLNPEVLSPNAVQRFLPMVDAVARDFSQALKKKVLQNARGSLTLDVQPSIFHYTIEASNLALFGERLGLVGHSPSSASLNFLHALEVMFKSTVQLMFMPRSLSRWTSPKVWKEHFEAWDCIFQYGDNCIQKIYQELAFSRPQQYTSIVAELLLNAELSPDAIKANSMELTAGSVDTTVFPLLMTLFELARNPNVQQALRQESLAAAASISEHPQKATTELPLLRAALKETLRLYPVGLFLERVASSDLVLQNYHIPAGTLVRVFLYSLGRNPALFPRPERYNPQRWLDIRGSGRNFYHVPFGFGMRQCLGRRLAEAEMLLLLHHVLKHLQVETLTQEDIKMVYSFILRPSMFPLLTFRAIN
Experimental: The human renal leiomyoma G402 cell line overexpressing human CYP11B1 was selected to serve as a compound selectivity screening system. Details are as follows: • 1) The cells, reagents, and instrument information were consistent with Experimental Example 1 (activity of monoclonal cells overexpressing human CYP11B2). • 2) Compound details: The test compound was prepared as a […] working concentration using DMSO. • 3) Experimental procedure
Day 1: Cells were digested, and human renal leiomyoma G402 cells overexpressing CYP11B1 were resuspended to 1×10^5 cells/mL, with […] seeded into a 96-well plate.
Day 2: The medium was replaced with DMEM/F12 containing 2.5% charcoal-stripped fetal bovine serum.
After one hour, the substrate was added: 30 mM 11-deoxycortisol was diluted 1500-fold with culture medium, and 5 μL was dispensed per well to achieve a final concentration of 1 μM, followed by incubation for 16 hours.
Day 3: The cell supernatant was collected and added to 200 μL of a methanol solution containing internal standards (internal standards: 35 ng/mL ketoprofen or 7.5 ng/mL carbamazepine or 5 ng/mL diphenhydramine or 10 ng/mL tolbutamide). […] The mixture was centrifuged (4000 g, 4° C., 15 min), and the supernatant was analyzed by ESI-LCMS/MS. • 4) Data analysis: […]
The IC50 of the test compound was determined by fitting to a nonlinear regression equation using XLfit 5.5.0.

[2] = In vivo pharmacokinetic study in cynomolgus monkeys; parameters: species or system cynomolgus monkey; conditions: cynomolgus monkey, plasma, male cynomolgus monkeys, oral 1 mg/kg
[3] = Permeability test in MDR1-MDCKII monolayer cell model; format: in vitro ADME; conditions: dog
In short: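 Bidirectional transport of 2 μM compound across 4–7-day MDR1-MDCKII monolayers in HBSS with 10 mM HEPES pH 7.40, DMSO below 1%, 2.5 h at 37 °C. Quantified by LC-MS/MS. Papp calculated from receiver accumulation; efflux ratio = Papp(B-A)/Papp(A-B).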

[4] = In vitro liver microsome metabolic stability study; format: in vitro ADME; conditions: human liver microsomes 0.5 mg/mL, compound 1 μM, 37° C., up to 60 minutes; read-out: Intrinsic hepatic clearance CLint(liver)
Experimental: Stock solution: 10 mM in DMSO.
Only 54 μL of microsomal working solution, 6 μL of NADPH regeneration system working solution, and 180 μL of stop solution were added to the blank plate.
LC-MS/MS analysis was performed.

[5] = Plasma protein binding rate test, human (equilibrium dialysis); format: in vitro ADME; conditions: 37° C.
From the text: The sample was thoroughly mixed.

[6] = biological target: T2, CYP2D6 (Homo sapiens, UniProt P10635); experiment: Human liver microsome CYP inhibition assay, CYP2D6; format: in vitro ADME; conditions: role: inhibitor; human liver microsomes, probe substrate; read-out: CYP2D6 half maximal inhibitory concentration IC50
T2 construct: Mixed human liver microsomes (HLM) were purchased from Corning Inc; tissue Corning Inc; host or cells: mixed human liver microsomes (HLM)
T2 sequence (P10635 whole entry): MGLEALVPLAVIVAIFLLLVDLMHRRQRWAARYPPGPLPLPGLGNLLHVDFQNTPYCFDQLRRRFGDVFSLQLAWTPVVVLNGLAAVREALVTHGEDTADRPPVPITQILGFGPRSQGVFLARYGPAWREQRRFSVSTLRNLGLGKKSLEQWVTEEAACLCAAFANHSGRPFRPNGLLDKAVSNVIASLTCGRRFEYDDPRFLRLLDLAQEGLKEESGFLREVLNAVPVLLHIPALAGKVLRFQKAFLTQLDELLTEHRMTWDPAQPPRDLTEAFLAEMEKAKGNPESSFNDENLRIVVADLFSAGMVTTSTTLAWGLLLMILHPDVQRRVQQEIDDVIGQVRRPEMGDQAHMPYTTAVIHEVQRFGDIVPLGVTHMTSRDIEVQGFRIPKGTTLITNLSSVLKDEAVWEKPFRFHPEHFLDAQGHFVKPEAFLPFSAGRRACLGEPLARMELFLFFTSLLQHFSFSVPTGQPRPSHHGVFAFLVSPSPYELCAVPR
Experimental: Experimental objective: To evaluate the inhibitory activity of the test substance on human liver microsomal cytochrome P450 isoenzymes (CYP1A2, CYP2C9, CYP2C19, CYP2D6, CYP3A4) using a 5-in-1 probe substrate for CYP isoenzymes.
Mixed human liver microsomes (HLM) were purchased from Corning Inc. (Steuben, New York, USA) and stored at temperatures below −70° C. prior to use.
The working solution of the test substance, which had been diluted to a series of concentrations, was added to an incubation system containing human liver microsomes, probe substrates, and auxiliary factors of the circulatory system. A control containing solvent but no test substance served as an enzyme activity control (100%). The concentration of metabolites produced from probe substrates in the samples was determined using Liquid Chromatography-Tandem Mass Spectrometry (LC-MS/MS) method. Non-linear regression analysis of the average percentage activity of the test substance against its concentration was conducted using SigmaPlot (V.11). The IC50 values were calculated using a three-parameter or four-parameter inverse log equation.

Structure (SMILES): CCC(=O)N[C@H]1CCOc2c(-c3ccc4c(c3)CCC(=O)N4C)cncc21 (single isomer, unassigned) [Compound 037]
- pIC50 [1]: 5.46
- bioavailability [2]: 67%
- half-life [2]: 5.75 h
- Cmax [2]: 1320 nM
- AUC(0-t) at 24 h ([2]; read-out: AUC0-24 h): 10 µM·h
- efflux ratio at 2.5 h, 2 µM ([3]; MDCK-MDR1, pH 7.4, ER=Papp(BA)/Papp(AB)): 1.88
- Papp A→B at 2.5 h, 2 µM ([3]; MDCK-MDR1, pH 7.4, pH 7.40, 2.5 hours, 37±1° C., read-out: Apparent permeability coefficient (Papp (AB))): 10.7 ×10⁻⁶ cm/s
- CLint scaled at 1 µM [4]: < 8.6 mL/min/kg
- fraction unbound at 4 h [5]: 0.354
- pIC50 [6]: < 4.30
